Each compound was assayed against PDGFRβ (Rattus norvegicus (Rat), UniProt Q05030) (assay: PDGFRβ Cellular Assay (PDGFRb P-Y751 HTRF in A10 cells stimulated with PDGF-BB)). Settings: PDGFR Cellular IC50.
Assay type: cell-based
Procedure, shortened: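 Phospho-Y751 PDGFRβ was measured by HTRF in lysates of A10 rat cells. Cells received compound for 3 hours before PDGF-BB stimulation (100 ng/mL working stock).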

Chain of PDGFRβ (Q05030 32-1097): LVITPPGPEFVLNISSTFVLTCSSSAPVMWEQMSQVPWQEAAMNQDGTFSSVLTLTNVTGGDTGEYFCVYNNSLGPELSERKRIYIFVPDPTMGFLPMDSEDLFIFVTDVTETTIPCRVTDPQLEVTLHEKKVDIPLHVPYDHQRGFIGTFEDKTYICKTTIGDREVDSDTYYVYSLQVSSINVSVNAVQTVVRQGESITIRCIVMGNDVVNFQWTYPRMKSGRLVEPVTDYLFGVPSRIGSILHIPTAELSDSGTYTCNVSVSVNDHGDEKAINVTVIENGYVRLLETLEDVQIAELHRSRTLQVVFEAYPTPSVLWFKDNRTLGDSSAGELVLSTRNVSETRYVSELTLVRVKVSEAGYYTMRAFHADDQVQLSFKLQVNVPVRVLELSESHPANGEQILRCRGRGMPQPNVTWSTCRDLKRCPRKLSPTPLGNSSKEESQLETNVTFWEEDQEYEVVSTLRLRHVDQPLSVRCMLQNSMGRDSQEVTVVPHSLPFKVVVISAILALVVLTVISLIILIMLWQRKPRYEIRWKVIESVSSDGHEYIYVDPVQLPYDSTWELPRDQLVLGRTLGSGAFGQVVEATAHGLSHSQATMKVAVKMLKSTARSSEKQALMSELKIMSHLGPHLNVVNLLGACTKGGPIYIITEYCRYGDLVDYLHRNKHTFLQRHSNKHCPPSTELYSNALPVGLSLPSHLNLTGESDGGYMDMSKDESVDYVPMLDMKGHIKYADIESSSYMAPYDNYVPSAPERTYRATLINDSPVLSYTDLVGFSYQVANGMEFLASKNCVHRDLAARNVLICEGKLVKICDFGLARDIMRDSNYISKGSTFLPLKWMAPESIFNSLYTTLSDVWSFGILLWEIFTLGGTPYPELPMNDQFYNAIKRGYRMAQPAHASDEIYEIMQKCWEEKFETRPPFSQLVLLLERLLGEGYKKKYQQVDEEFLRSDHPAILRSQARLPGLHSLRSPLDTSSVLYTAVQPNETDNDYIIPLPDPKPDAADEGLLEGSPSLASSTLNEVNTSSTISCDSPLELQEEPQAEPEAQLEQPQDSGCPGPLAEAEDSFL

`COCCN(CCNC(=O)c1cnc(C)c(NC(=O)c2cnn3cc(-c4cnn(C)c4)sc23)c1)C(C)C` [Example 127, N-(5-((2-(isopropyl(2-methoxyethyl)amino)ethyl)carbamoyl)-2-methylpyridin-3-yl)-2-(1-methyl-1H-pyrazol-4-yl)pyrazolo[5,1-b]thiazole-7-carboxamide] gave an IC50 of 16.2 nM.

Same assay, conditions: read-out: PDGFR Cellular IC50

Point of comparison: `COCCn1cc(-c2cn3ncc(C(=O)Nc4cc(C(=O)NCCN5CCC(F)(F)CC5)cnc4C)c3s2)cn1` [Example 165, N-(5-((2-(4,4-difluoropiperidin-1-yl)ethyl)carbamoyl)-2-methylpyridin-3-yl)-2-(1-(2-methoxyethyl)-1H-pyrazol-4-yl)pyrazolo[5,1-b]thiazole-7-carboxamide], IC50 11.4 nM. Against it:
- Cc1ncc(C(=O)NCCN2CCC3(CC3)C2)cc1NC(=O)c1cnn2cc(-c3cn(C)cn3)sc12 [Example 162, N-(5-((2-(5-azaspiro[2.4]heptan-5-yl)ethyl)carbamoyl)-2-methylpyridin-3-yl)-2-(1-methyl-1H-imidazol-4-yl)pyrazolo[5,1-b]thiazole-7-carboxamide] — 58-fold higher, 660 nM
- Cc1ncc(C(=O)NCCN2CC3CCC2CC3)cc1NC(=O)c1cnn2cc(-c3cnn(CC(N)=O)c3)sc12 [Example 150, N-(5-((2-(2-azabicyclo[2.2.2]octan-2-yl)ethyl)carbamoyl)-2-methylpyridin-3-yl)-2-(1-(2-amino-2-oxoethyl)-1H-pyrazol-4-yl)pyrazolo[5,1-b]thiazole-7-carboxamide] — higher, > 2000 nM
- Cc1ncc(C(=O)NCCN2CC(C)(C)C2)cc1NC(=O)c1cnn2cc(-c3cn(C)cn3)sc12 [Example 161] — 11-fold higher, 123 nM
- Cc1ncc(C(=O)NCCN2CC3CCC2CC3)cc1NC(=O)c1cnn2cc(-c3cnn(CC#N)c3)sc12 [Example 151, N-(5-((2-(2-azabicyclo[2.2.2]octan-2-yl)ethyl)carbamoyl)-2-methylpyridin-3-yl)-2-(1-(cyanomethyl)-1H-pyrazol-4-yl)pyrazolo[5,1-b]thiazole-7-carboxamide] — 21-fold higher, 240 nM
- Cc1ncc(C(=O)NCCN2CCOCC23CC3)cc1NC(=O)c1cnn2cc(-c3cnn(C)c3)sc12 [Example 110, N-(5-((2-(7-oxa-4-azaspiro[2.5]octan-4-yl)ethyl)carbamoyl)-2-methylpyridin-3-yl)-2-(1-methyl-1H-pyrazol-4-yl)pyrazolo[5,1-b]thiazole-7-carboxamide] — 3.1-fold higher, 35.4 nM
- Cc1ncc(C(=O)NCCN2CC(C)(C)C2)cc1NC(=O)c1cnn2cc(-c3cccnc3)sc12 [Example 158, N-(5-((2-(3,3-dimethylazetidin-1-yl)ethyl)carbamoyl)-2-methylpyridin-3-yl)-2-(pyridin-3-yl)pyrazolo[5,1-b]thiazole-7-carboxamide] — 14-fold higher, 156 nM
- Cc1ncc(NC(=O)CCN2CC(C)(C)C2)cc1NC(=O)c1cnn2cc(-c3cnn(C)c3)sc12 [Example 96, N-(5-(3-(3,3-dimethylazetidin-1-yl)propanamido)-2-methylpyridin-3-yl)-2-(1-methyl-1H-pyrazol-4-yl)pyrazolo[5,1-b]thiazole-7-carboxamide] — within 1.5-fold, 17 nM
- Cc1ncc(NC(=O)CCN2CCCC2(C)C)cc1NC(=O)c1cnn2cc(-c3cnn(C)c3)sc12 [Example 10, N-(5-(3-(2,2-dimethylpyrrolidin-1-yl)propanamido)-2-methyl-pyridin-3-yl)-2-(1-methyl-1H-pyrazol-4-yl)pyrazolo[5,1-b]thiazole-7-carboxamide] — 2.2-fold lower, 5.2 nM
- Cc1ncc(NC(=O)NCCC2CCN(C)CC2)cc1NC(=O)c1cnn2cc(-c3cnn(C)c3)sc12 [Example 108, 2-(1-methyl-1H-pyrazol-4-yl)-N-(2-methyl-5-(3-(2-(1-methylpiperidin-4-yl)ethyl)ureido)pyridin-3-yl)pyrazolo[5,1-b]thiazole-7-carboxamide] — higher, > 3000 nM
- Cc1ncc(C(=O)NCCN2CC3CCC2CC3)cc1NC(=O)c1cnn2cc(-c3cnn(CS(C)(=O)=O)c3)sc12 [Example 143, N-(5-((2-(2-azabicyclo[2.2.2]octan-2-yl)ethyl)carbamoyl)-2-methylpyridin-3-yl)-2-(1-((methylsulfonyl)methyl)-1H-pyrazol-4-yl)pyrazolo[5,1-b]thiazole-7-carboxamide] — 88-fold higher, 998 nM
- Cc1ncc(NC(=O)CCCN2CCC[C@@H]2C)cc1NC(=O)c1cnn2cc(-c3cnn(C)c3)sc12 [Example 106, (S)-2-(1-methyl-1H-pyrazol-4-yl)-N-(2-methyl-5-(4-(2-methylpyrrolidin-1-yl)butanamido)pyridin-3-yl)pyrazolo[5,1-b]thiazole-7-carboxamide] — 40-fold higher, 461 nM
- Cc1ncc(C(=O)NCCN2CCC23CCC3)cc1NC(=O)c1cnn2cc(-c3cnn(C)c3C)sc12 [Example 169, N-(5-((2-(1-azaspiro[3.3]heptan-1-yl)ethyl)carbamoyl)-2-methylpyridin-3-yl)-2-(1,5-dimethyl-1H-pyrazol-4-yl)pyrazolo[5,1-b]thiazole-7-carboxamide] — within 1.5-fold, 15 nM
- Cc1ncc(C(=O)NCCN2CC3COCC3C2)cc1NC(=O)c1cnn2cc(-c3cnn(C)c3)sc12 (stereo not shown) [Example 112, 2-(1-methyl-1H-pyrazol-4-yl)-N-(2-methyl-5-((2-(tetrahydro-1H-furo[3,4-c]pyrrol-5 (3H)-yl)ethyl)carbamoyl)pyridin-3-yl)pyrazolo[5,1-b]thiazole-7-carboxamide] — 14-fold higher, 159 nM
- Cc1ncc(C(=O)NCCN2CCC(F)(F)CC2)cc1NC(=O)c1cnn2cc(-c3cnn(C)c3)sc12 [Example 119, N-(5-((2-(4,4-difluoropiperidin-1-yl)ethyl)carbamoyl)-2-methylpyridin-3-yl)-2-(1-methyl-1H-pyrazol-4-yl)pyrazolo[5,1-b]thiazole-7-carboxamide] — 2.3-fold lower, 4.9 nM
- Cc1ncc(NC(=O)NCC2CCN(C(C)C)CC2)cc1NC(=O)c1cnn2cc(-c3cnn(C)c3)sc12 [Example 109, N-(5-(3-((1-isopropylpiperidin-4-yl)methyl)ureido)-2-methylpyridin-3-yl)-2-(1-methyl-1H-pyrazol-4-yl)pyrazolo[5,1-b]thiazole-7-carboxamide] — higher, > 3000 nM
- Cc1ncc(C(=O)NCCN2CCCC2(C)C)cc1NC(=O)c1cnn2cc(-c3cncnc3)sc12 [Example 139, N-(5-((2-(2,2-dimethylpyrrolidin-1-yl)ethyl)carbamoyl)-2-methylpyridin-3-yl)-2-(pyrimidin-5-yl)pyrazolo[5,1-b]thiazole-7-carboxamide] — 14-fold higher, 164 nM
- Cc1ncc(C(=O)NCCN2CCC3(CCOC3)C2)cc1NC(=O)c1cnn2cc(-c3cnn(C)c3)sc12 (stereo not shown) [Example 116, N-(5-((2-(2-oxa-7-azaspiro[4.4]nonan-7-yl)ethyl)carbamoyl)-2-methylpyridin-3-yl)-2-(1-methyl-1H-pyrazol-4-yl)pyrazolo[5,1-b]thiazole-7-carboxamide] — 6.6-fold higher, 74.7 nM
- Cc1ncc(C(=O)NCCN2CCC(F)(F)CC2)cc1NC(=O)c1cnn2cc(-c3ccncc3)sc12 [Example 154, N-(5-((2-(4,4-difluoropiperidin-1-yl)ethyl)carbamoyl)-2-methylpyridin-3-yl)-2-(pyridin-4-yl)pyrazolo[5,1-b]thiazole-7-carboxamide] — within 1.5-fold, 8.7 nM
- Cc1ncc(C(=O)NCCN2Cc3ncsc3C2)cc1NC(=O)c1cnn2cc(-c3cnn(C)c3)sc12 [Example 111, N-(5-((2-(4H-pyrrolo[3,4-d]thiazol-5 (6H)-yl)ethyl)carbamoyl)-2-methylpyridin-3-yl)-2-(1-methyl-1H-pyrazol-4-yl)pyrazolo[5,1-b]thiazole-7-carboxamide] — 26-fold higher, 294 nM
- Cc1ncc(C(=O)NCCN2CC3CC(C3)C2)cc1NC(=O)c1cnn2cc(-c3cnn(C)c3)sc12 [Example 5, N-(5-((2-(3-azabicyclo[3.1.1]heptan-3-yl)ethyl)carbamoyl)-2-methylpyridin-3-yl)-2-(1-methyl-1H-pyrazol-4-yl)pyrazolo[5,1-b]thiazole-7-carboxamide] — 2.3-fold higher, 26.2 nM
- Cc1ncc(NC(=O)CCN2CCC3(CC3)C2)cc1NC(=O)c1cnn2cc(-c3cnn(C)c3)sc12 [Example 104, N-(5-(3-(5-azaspiro[2.4]heptan-5-yl)propanamido)-2-methylpyridin-3-yl)-2-(1-methyl-1H-pyrazol-4-yl)pyrazolo[5,1-b]thiazole-7-carboxamide] — within 1.5-fold, 9.2 nM
- Cc1ncc(C(=O)NCCN2CCCC2(C)C)cc1NC(=O)c1cnn2cc(-c3cnn(CCO)c3)sc12 [Example 140, N-(5-((2-(2,2-dimethylpyrrolidin-1-yl)ethyl)carbamoyl)-2-methylpyridin-3-yl)-2-(1-(2-hydroxyethyl)-1H-pyrazol-4-yl)pyrazolo[5,1-b]thiazole-7-carboxamide] — 27-fold higher, 309 nM
- COCCn1cc(-c2cn3ncc(C(=O)Nc4cc(C(=O)NCCN5CC6CCC5CC6)cnc4C)c3s2)cn1 [Example 142, N-(5-((2-(2-azabicyclo[2.2.2]octan-2-yl)ethyl)carbamoyl)-2-methylpyridin-3-yl)-2-(1-(2-methoxyethyl)-1H-pyrazol-4-yl)pyrazolo[5,1-b]thiazole-7-carboxamide] — 6.3-fold higher, 71.7 nM
- Cc1ncc(C(=O)NCCN2CCCC2(C)C)cc1NC(=O)c1cnn2cc(-c3ccncc3)sc12 [Example 7, N-(5-((2-(2,2-dimethylpyrrolidin-1-yl)ethyl)carbamoyl)-2-methyl-pyridin-3-yl)-2-(pyridin-4-yl)pyrazolo[5,1-b]thiazole-7-carboxamide] — within 1.5-fold, 15.8 nM
- Cc1ncc(C(=O)NCCN2CC3CCC2CC3)cc1NC(=O)c1cnn2cc(-c3cccnc3)sc12 [Example 149, N-(5-((2-(2-azabicyclo[2.2.2]octan-2-yl)ethyl)carbamoyl)-2-methylpyridin-3-yl)-2-(pyridin-3-yl)pyrazolo[5,1-b]thiazole-7-carboxamide] — 3.2-fold higher, 36.2 nM
- Cc1ncc(C(=O)NCCN2CC3CCC2CC3)cc1NC(=O)c1cnn2cc(-c3cnn(C4COC4)c3)sc12 [Example 144, N-(5-((2-(2-azabicyclo[2.2.2]octan-2-yl)ethyl)carbamoyl)-2-methylpyridin-3-yl)-2-(1-(oxetan-3-yl)-1H-pyrazol-4-yl)pyrazolo[5,1-b]thiazole-7-carboxamide] — 9.3-fold higher, 106 nM

Reference: US20240109917A1 (ACTELION PHARMACEUTICALS LTD, priority 2020, published 2024)
